In patent US5627199A, “6-heterocyclic-4-amino-1,2,2A,3,4,5-hexahydrobenz [CD] indoles” (ELi Lilly and Company, priority 1995, dated 1997):
Counter-ions that a name gives are not always drawn.

Key:
5-HT1A receptor = biological target: T1, 5-HT1A receptor (Rattus norvegicus, UniProt P19327); test: 5-HT1A receptor in vitro binding ([3H]8-OH-DPAT, rat hippocampal membranes); design: species or system male Sprague-Dawley rats; details: inhibition of [3H]8-OH-DPAT (1.0 nM) binding by 50%, pH 7.4, 10 min at 37° C.
T1 construct: the brains were rapidly chilled and dissected to obtain the hippocampi; from tissue; host or cells: hippocampal membranes of male Sprague-Dawley rats
T1 sequence (P19327 1-422): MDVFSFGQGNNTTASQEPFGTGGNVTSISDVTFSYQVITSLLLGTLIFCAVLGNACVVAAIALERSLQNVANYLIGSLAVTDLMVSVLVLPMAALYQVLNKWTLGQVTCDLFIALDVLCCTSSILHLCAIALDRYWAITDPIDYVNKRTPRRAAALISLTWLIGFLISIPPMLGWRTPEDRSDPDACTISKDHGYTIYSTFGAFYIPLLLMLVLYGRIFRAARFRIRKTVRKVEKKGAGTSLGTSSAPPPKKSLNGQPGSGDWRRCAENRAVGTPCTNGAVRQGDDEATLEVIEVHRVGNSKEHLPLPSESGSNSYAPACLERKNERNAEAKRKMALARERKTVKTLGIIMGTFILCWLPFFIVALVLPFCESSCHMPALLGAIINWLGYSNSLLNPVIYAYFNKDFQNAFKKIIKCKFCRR
Protocol: The affinities of certain of the compounds of Formula 1 at the central 5-HT1A receptors were determined using a modification of the binding assay described by Taylor et al., J. Pharmacol. Exp. Ther. 236, 118-125 (1986). Membranes for the binding assay were prepared from male Sprague-Dawley rats (150-250 g). The animals were killed by decapitation, and the brains were rapidly chilled and dissected to obtain the hippocampi. Membranes from the hippocampi were either prepared that day, or the hippocampi were stored frozen (-70° C.) until the day of preparation. The membranes were prepared by homogenizing the tissue in 40 volumes of ice-cold Tris-HCl buffer (50 mM, pH 7.4 at 22° C.) using a Techmar Tissumizer (setting 65 for 15 sec), and the homogenate was centrifuged at 39800× g for 10 minutes. The resulting pellet was then resuspended in the same buffer, and the centrifugation and resuspension process was repeated three additional times to wash the membranes. Between the second and third washes the resuspended membranes were incubated for 10 minutes at 37° C. to facilitate the removal of endogenous ligands. The final pellet was resuspended in 67 mM Tris-HCl, pH 7.4, to a concentration of 2 mg of tissue original wet weight/200 μl. This homogenate was stored frozen (-70° C.) until the day of the binding assay. […] The assay tubes were incubated for 10 minutes at 37° C. and the contents were then rapidly filtered through GF/B filters (pretreated with 0.5% polyethylenimine), followed by four 1 ml washes with ice-cold buffer. The radioactivity trapped by the filters was quantitated by liquid scintillation spectrometry, and specific [^3 H]8-OH-DPAT binding to the 5-HT1A sites was defined as the difference between [^3 H]8-OH-DPAT bound in the presence and absence of 10 μM 5-HT.
In Table 1, the first column provides the Example Number of the compound evaluated while the second column provides the amount of test compound (expressed in nanomolar concentration) required to inhibit the binding of [^3 H]8-OH-DPAT by 50% (indicated as IC50).

5-HT1D receptor = 5-HT1D receptor in vitro binding ([3H]5-HT, bovine caudate membranes); details: inhibition of [3H]5-HT (1.7-1.9 nM) binding by 50%, 8-OH-DPAT and mesulergine (100 nM each) as masks, pH 7.4, 10 min at 37° C.
Protocol: The affinities of certain of the compounds of Formula 1 at the central 5-HT1D binding sites were determined using a modification of the binding assay described by Heuring and Peroutka, J. Neurosci., 7, 894 (1987). Bovine brains were obtained and the caudate nuclei were dissected out and frozen at -70° C. until the time that the membranes were prepared for the binding assays. At that time the tissues were homogenized in 40 volumes of ice-cold Tris-HCl buffer (50 mM, pH 7.4 at 22° C.) with a Techmar Tissumizer (setting 65 for 15 sec), and the homogenate was centrifuged at 39,800× g for 10 minutes. The resulting pellet was then resuspended in the same buffer, and the centrifugation and resuspension process was repeated three additional times to wash the membranes. Between the second and third washes the resuspended membranes were incubated for 10 minutes at 37° C. to facilitate the removal of endogenous 5-HT. The final pellet was resuspended in the buffer to a concentration of 25 mg of original tissue wet weight/ml for use in the binding assay. […] The assay tubes were incubated for 10 minutes at 37° C. and the contents were then rapidly filtered through GF/B filters (pretreated with 0.5% polyethylenimine), followed by four 1 ml washes with ice-cold buffer. The radioactivity trapped by the filters was quantitated by liquid scintillation spectrometry, and specific [^3 H]5-HT binding to the 5-HT1D sites was defined as the difference between [^3 H]5-HT bound in the presence and absence of 10 μM 5-HT.
In Table 2, the first column provides the Example Number of the compound evaluated while the second column provides the amount of test compound (expressed in nanomolar concentration) required to inhibit the binding of [^3 H]5-HT by 50% (indicated as IC50).

| Structure (SMILES) | IC50 (5-HT1A receptor) [µM] | IC50 (5-HT1D receptor) [µM] |
| --- | --- | --- |
| CCCN(CCC)C1Cc2c(-c3ccno3)ccc3c2C(CN3)C1 (racemic) [Example 7, (±)-6-(5-isoxazolyl)-4-(di-n-propylamino)-1,2,2a,3,4,5-hexahydrobenz[cd]indole.2HCl] | 0.00195 | 0.0236 |
| CCCN(CCC)[C@H]1Cc2c(-c3cc[nH]n3)ccc3c2[C@@H](CN3)C1 [Example 6, (+)(2aS,4R)-6-(3-pyrazolyl)-4-(di-n-propylamino)-1,2,2a,3,4,5-hexahydrobenz[cd]indole.2HCL] | 0.00637 | 0.03 |
| CCCN(CCC)[C@H]1Cc2c(-c3ccon3)ccc3c2[C@@H](CN3)C1 [Example 8, (+)(2aS,4R)-6-(3-isoxazolyl)-4-(di-n-propylamino)-1,2,2a,3,4,5-hexahydrobenz[cd]indole.2 HCl] | 0.00091 | 0.00912 |
| CCCN(CCC)[C@H]1Cc2c(-c3ccno3)ccc3c2[C@@H](CN3)C1 [Example 10, (+)(2aS, 4R)-6-(5-isoxazolyl)-4-(di-n-propylamino)-1,2,2a,3,4,5-hexahydrobenz[cd]indole.2 HCl] | 0.00073 | 0.0112 |
| CCCN(CCC)[C@@H]1Cc2c(-c3ccno3)ccc3c2[C@H](CN3)C1 [Example 11, (-)(2aR,4S)-6-(5-isoxazolyl)-4-(di-n-propylamino)-1,2,2a,3,4,5-hexahydrobenz[cd]indole.2 HCl] | 0.00208 | 1.38 |
| CCCN(CCC)[C@@H]1Cc2c(-c3nc(-c4ccccc4)no3)ccc3c2[C@H](CN3)C1 [Example 12, (2aR,4S)-6-(3-phenyl-1,2,4-oxadiazol-5-yl)-4-(di-n-propylamino)-1,2,2a,3,4,5-hexahydrobenz[cd]indole] | 0.105 | – |
| CCCN(CCC)[C@@H]1Cc2c(-c3ccco3)ccc3c2[C@H](CN3)C1 [Example 13, (-)(2aR,4S)-6-(2-furyl)-4-(di-n-propylamino)-1,2,2a,3,4,5-hexahydrobenz[cd]indole] | 0.0211 | 1.89 |
| CCCN(CCC)[C@H]1Cc2c(-c3ccco3)ccc3c2[C@@H](CN3)C1 [Example 14, (+)(2aS,4R)-6-(2-furyl)-4-(di-n-propylamino)-1,2,2a,3,4,5-hexahydrobenz[cd]indole] | 0.0053 | 0.0431 |
| CCCN(CCC)[C@H]1Cc2c(-c3ccoc3)ccc3c2[C@@H](CN3)C1 [Example 15, (+)(2aS,4R)-6-(3-furyl)-4-(di-n-propylamino)-1,2,2a,3,4,5-hexahydrobenz[cd]indole] | 0.00274 | 0.0194 |
| CCCN(CCC)[C@H]1Cc2c(-c3ccccn3)ccc3c2[C@@H](CN3)C1 [Example 17, (+)(2aS, 4R)-6-(2-pyridyl)-4-(di-n-propylamino)-1,2,2a,3,4,5-hexahydrobenz[cd]indol] | 0.0173 | 0.163 |
| CCCN(CCC)[C@H]1Cc2c(-c3cccnc3)ccc3c2[C@@H](CN3)C1 [Example 18, (+)(2aS,4R)-6-(3-pyridyl)-4-(di-n-propylamino)-1,2,2a,3,4,5-hexahydrobenz[cd]indole] | 0.00192 | 0.0403 |
